In patent publication US11464763B2, “Parasiticidal compositions comprising an isoxazoline active agent, methods and uses thereof” (BOEHRINGER INGELHEIM ANIMAL HEALTH USA INC., priority 2011, dated 2022):

How the values were obtained:
Ctenocephalides felis [1] = assay: Long lasting spot-on efficacy against Ctenocephalides felis fleas in cats (Example 9); format: in vivo; conditions: Group 4: 15.0% in DMI, 15 mg/kg
Experimental: The efficacy of spot-on compositions comprising Cmpd. A in DMI at different doses against Ctenocephalides felis fleas in cats was studied. Four treatment groups were formed with five cats per treatment group: Group 1—untreated control; Group 2—Compound A at 5.0% (w/v) in DMI to deliver a dose of 5 mg/kg; Group 3—Compound A at a concentration of 10.0% (w/v) in DMI to deliver a dose of 10 mg/kg; and Group 4—Compound A at a concentration of 15.0% (w/v) in DMI to deliver a dose of 15 mg/kg. Treatment was administered once on Day 0. The cats were each infested with approximately 100 C. felis fleas at each time point evaluated.
Cats in all treatment groups were infested on Days −1, 0 (approx. 12 h following treatment), 7, 28, 49, 70, 91, 105, 119 and 133. Cats were also infested on Days 126 and 140 (Treatment Groups 1 and 2); Days 147, 154, 155, 161, 168 and 175 (Treatment Groups 1, 3 and 4); Days 182, 189 and 197 (Treatment Groups 1 and 4). After each infestation, fleas were removed and counted approximately 48 hours (±3 hours) for most time points.

Ctenocephalides felis [2] = assay: Spot-on efficacy at 1 mg/kg against Ctenocephalides felis fleas in cats (Example 7); format: in vivo; conditions: for efficacy against fleas: Group 2 (DMI)
Experimental: The efficacy of several spot-on formulations comprising Cmpd. A dosed at 1 mg/kg body weight in different carrier vehicles against fleas in cats was studied. Five cats each were allocated to 6 Treatment Groups. The […] per study group were subjected to weekly infestations followed by 24 h flea counts for 5 to 8 weeks, according to the following Group allocations: Group 1—untreated control; Group 2-1.0% (w/v) Cmpd. A in DMI; Group 3-1.0% (w/v) Cmpd. A in diethyl sebacate (DES); Group 4-1.0% (w/v) Cmpd. A in 9% lauryl lactate+DES; Group 5—1% (w/v) Cmpd. A in 8% ethyl oleate+DES; and Group 6-1% (w/v) Cmpd. A in a vehicle comprising Transcutol®+10% (w/v) ethanol+5% polyvinylpyrrolidone+5% TWEEN 80. Cats were infested with approximately 100 C. felis on Day −1 and treated on Day 0 with the corresponding spot-on formulation by application of the formulation directly on the skin in the midline of the neck, between the base of the skull and the shoulder blades in a single spot using a 1 mL syringe. Twelve hours after treatment, fleas were removed and counted. The cats were immediately re-infested with approximately 100 fleas. Fleas were removed and counted on Day 1 at approximately 24 hours post-treatment. Cats were also infested with fleas on Days 7, 21, […], 35, 42 and 49. Fleas were removed and counted approximately 24 hours after infestation on Days 8, 22, 29, 36, 43 and 50.

O=C(CNC(=O)c1ccc(C2=NOC(c3cc(Cl)cc(C(F)(F)F)c3)(C(F)(F)F)C2)c2ccccc12)NCC(F)(F)F (stereo not drawn) [Compound A, 4-[5-[3-chloro-5-(trifluoromethyl)phenyl]-4,5-dihydro-5-(trifluoromethyl)-3-isoxazolyl]-N-[2-oxo-2-[(2,2,2-trifluoroethyl)amino]ethyl]-1-naphthalanecarboxamide]
% Reduction Fleas (Ctenocephalides felis [1]; Day 163): 100.0%
% Reduction Fleas (Ctenocephalides felis [1]; Day 170): 96.2%
% Reduction Fleas (Ctenocephalides felis [1]; Day 177): 94.8%
% Reduction Fleas (Ctenocephalides felis [1]; Day 184): 95.7%
% Reduction Fleas (Ctenocephalides felis [1]; Day 191): 90.6%
% Reduction Fleas (Ctenocephalides felis [1]; Day 199): 79.2%
efficacy against fleas (Ctenocephalides felis [2]; until Day 50): above 85%
efficacy against fleas (Ctenocephalides felis [2]; until at least Day 43): above 90%
% Reduction (Ctenocephalides felis [2]; Group 2: 1.0% in DMI, 1 mg/kg, Day 0 (12 hr)): 22.3%
% Reduction (Ctenocephalides felis [2]; Group 2: 1.0% in DMI, 1 mg/kg, Day 1): 28.0%
% Reduction (Ctenocephalides felis [2]; Group 2: 1.0% in DMI, 1 mg/kg, Day 8): 99.3%
% Reduction (Ctenocephalides felis [2]; Group 2: 1.0% in DMI, 1 mg/kg, Day 22): 99.5%
% Reduction (Ctenocephalides felis [2]; Group 2: 1.0% in DMI, 1 mg/kg, Day 29): 98.5%
% Reduction (Ctenocephalides felis [2]; Group 2: 1.0% in DMI, 1 mg/kg, Day 36): 94.2%
% Reduction (Ctenocephalides felis [2]; Group 2: 1.0% in DMI, 1 mg/kg, Day 43): 94.3%
% Reduction (Ctenocephalides felis [2]; Group 2: 1.0% in DMI, 1 mg/kg, Day 50): 87.7%
% Reduction (Ctenocephalides felis [2]; Group 3: 1.0% in DES, 1 mg/kg, Day 0 (12 hr)): 9.6%
% Reduction (Ctenocephalides felis [2]; Group 3: 1.0% in DES, 1 mg/kg, Day 1): 72.7%
% Reduction (Ctenocephalides felis [2]; Group 3: 1.0% in DES, 1 mg/kg, Day 8): 99.7%
% Reduction (Ctenocephalides felis [2]; Group 3: 1.0% in DES, 1 mg/kg, Day 22): 97.4%
% Reduction (Ctenocephalides felis [2]; Group 3: 1.0% in DES, 1 mg/kg, Day 29): 95.1%
% Reduction (Ctenocephalides felis [2]; Group 3: 1.0% in DES, 1 mg/kg, Day 36): 79.3%
% Reduction (Ctenocephalides felis [2]; Group 3: 1.0% in DES, 1 mg/kg, Day 43): 72.2%
% Reduction (Ctenocephalides felis [2]; Group 3: 1.0% in DES, 1 mg/kg, Day 50): 44.8%
% Reduction (Ctenocephalides felis [2]; Group 4: 1.0% in 9% lauryl lactate+DES, 1 mg/kg, Day 0 (12 hr)): 9.2%
% Reduction (Ctenocephalides felis [2]; Group 4: 1.0% in 9% lauryl lactate+DES, 1 mg/kg, Day 1): 36.5%
% Reduction (Ctenocephalides felis [2]; Group 4: 1.0% in 9% lauryl lactate+DES, 1 mg/kg, Day 8): 99.7%
% Reduction (Ctenocephalides felis [2]; Group 4: 1.0% in 9% lauryl lactate+DES, 1 mg/kg, Day 22): 98.5%
% Reduction (Ctenocephalides felis [2]; Group 4: 1.0% in 9% lauryl lactate+DES, 1 mg/kg, Day 29): 98.1%
% Reduction (Ctenocephalides felis [2]; Group 4: 1.0% in 9% lauryl lactate+DES, 1 mg/kg, Day 36): 89.3%
% Reduction (Ctenocephalides felis [2]; Group 4: 1.0% in 9% lauryl lactate+DES, 1 mg/kg, Day 43): 92.7%
% Reduction (Ctenocephalides felis [2]; Group 4: 1.0% in 9% lauryl lactate+DES, 1 mg/kg, Day 50): 79.2%
% Reduction (Ctenocephalides felis [2]; Group 5: 1% in 8% ethyl oleate+DES, 1 mg/kg, Day 0 (12 hr)): 65.9%
% Reduction (Ctenocephalides felis [2]; Group 5: 1% in 8% ethyl oleate+DES, 1 mg/kg, Day 1): 77.2%
% Reduction (Ctenocephalides felis [2]; Group 5: 1% in 8% ethyl oleate+DES, 1 mg/kg, Day 8): 98.4%
% Reduction (Ctenocephalides felis [2]; Group 5: 1% in 8% ethyl oleate+DES, 1 mg/kg, Day 22): 96.9%
% Reduction (Ctenocephalides felis [2]; Group 5: 1% in 8% ethyl oleate+DES, 1 mg/kg, Day 29): 95.0%
% Reduction (Ctenocephalides felis [2]; Group 5: 1% in 8% ethyl oleate+DES, 1 mg/kg, Day 36): 85.5%
% Reduction (Ctenocephalides felis [2]; Group 5: 1% in 8% ethyl oleate+DES, 1 mg/kg, Day 43): 79.7%
% Reduction (Ctenocephalides felis [2]; Group 5: 1% in 8% ethyl oleate+DES, 1 mg/kg, Day 50): 64.0%
% Reduction (Ctenocephalides felis [2]; Group 6: 1% in Transcutol+10% ethanol+5% polyvinylpyrrolidone+5% TWEEN 80, 1 mg/kg, Day 0 (12 hr)): 17.7%
% Reduction (Ctenocephalides felis [2]; Group 6: 1% in Transcutol+10% ethanol+5% polyvinylpyrrolidone+5% TWEEN 80, 1 mg/kg, Day 1): 75.6%
% Reduction (Ctenocephalides felis [2]; Group 6: 1% in Transcutol+10% ethanol+5% polyvinylpyrrolidone+5% TWEEN 80, 1 mg/kg, Day 8): 100.0%
% Reduction (Ctenocephalides felis [2]; Group 6: 1% in Transcutol+10% ethanol+5% polyvinylpyrrolidone+5% TWEEN 80, 1 mg/kg, Day 22): 99.3%
% Reduction (Ctenocephalides felis [2]; Group 6: 1% in Transcutol+10% ethanol+5% polyvinylpyrrolidone+5% TWEEN 80, 1 mg/kg, Day 29): 97.5%
% Reduction (Ctenocephalides felis [2]; Group 6: 1% in Transcutol+10% ethanol+5% polyvinylpyrrolidone+5% TWEEN 80, 1 mg/kg, Day 36): 93.8%
% Reduction (Ctenocephalides felis [2]; Group 6: 1% in Transcutol+10% ethanol+5% polyvinylpyrrolidone+5% TWEEN 80, 1 mg/kg, Day 43): 93.9%
% Reduction (Ctenocephalides felis [2]; Group 6: 1% in Transcutol+10% ethanol+5% polyvinylpyrrolidone+5% TWEEN 80, 1 mg/kg, Day 50): 79.6%
